The source of these data is patent US20230382924A1, “MODULATORS OF CYSTIC FIBROSIS TRANSMEMBRANE CONDUCTANCE REGULATOR” (VERTEX PHARMACEUTICALS INCORPORATED, priority 2020, published 2023).

This test addresses CFTR (Homo sapiens, UniProt P13569). As to the kind of experiment: Membrane Potential Dye, Enteroid Assay A. In kind it is cell-based. As to conditions: for EC50: read-out: Ent. A EC50. The essentials: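 Enteroid cells were loaded with methyl oxonol membrane potential dye (plus CaCCinh-A01 and Chicago Sky Blue) for 25 min at room temperature. Chloride transport was started by switching to chloride-free gluconate stimulation solution, with fluorescence read for 15 min. Activity was expressed as % of a triple-combination CFTR modulator control (3 μM, 3 μM, 300 nM acute).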

Molecules are shown by their SMILES. Read-outs that look alike come from different tables or passages of the source.

Chain of CFTR (P13569 with tags, fused parts or gaps DEL508-508): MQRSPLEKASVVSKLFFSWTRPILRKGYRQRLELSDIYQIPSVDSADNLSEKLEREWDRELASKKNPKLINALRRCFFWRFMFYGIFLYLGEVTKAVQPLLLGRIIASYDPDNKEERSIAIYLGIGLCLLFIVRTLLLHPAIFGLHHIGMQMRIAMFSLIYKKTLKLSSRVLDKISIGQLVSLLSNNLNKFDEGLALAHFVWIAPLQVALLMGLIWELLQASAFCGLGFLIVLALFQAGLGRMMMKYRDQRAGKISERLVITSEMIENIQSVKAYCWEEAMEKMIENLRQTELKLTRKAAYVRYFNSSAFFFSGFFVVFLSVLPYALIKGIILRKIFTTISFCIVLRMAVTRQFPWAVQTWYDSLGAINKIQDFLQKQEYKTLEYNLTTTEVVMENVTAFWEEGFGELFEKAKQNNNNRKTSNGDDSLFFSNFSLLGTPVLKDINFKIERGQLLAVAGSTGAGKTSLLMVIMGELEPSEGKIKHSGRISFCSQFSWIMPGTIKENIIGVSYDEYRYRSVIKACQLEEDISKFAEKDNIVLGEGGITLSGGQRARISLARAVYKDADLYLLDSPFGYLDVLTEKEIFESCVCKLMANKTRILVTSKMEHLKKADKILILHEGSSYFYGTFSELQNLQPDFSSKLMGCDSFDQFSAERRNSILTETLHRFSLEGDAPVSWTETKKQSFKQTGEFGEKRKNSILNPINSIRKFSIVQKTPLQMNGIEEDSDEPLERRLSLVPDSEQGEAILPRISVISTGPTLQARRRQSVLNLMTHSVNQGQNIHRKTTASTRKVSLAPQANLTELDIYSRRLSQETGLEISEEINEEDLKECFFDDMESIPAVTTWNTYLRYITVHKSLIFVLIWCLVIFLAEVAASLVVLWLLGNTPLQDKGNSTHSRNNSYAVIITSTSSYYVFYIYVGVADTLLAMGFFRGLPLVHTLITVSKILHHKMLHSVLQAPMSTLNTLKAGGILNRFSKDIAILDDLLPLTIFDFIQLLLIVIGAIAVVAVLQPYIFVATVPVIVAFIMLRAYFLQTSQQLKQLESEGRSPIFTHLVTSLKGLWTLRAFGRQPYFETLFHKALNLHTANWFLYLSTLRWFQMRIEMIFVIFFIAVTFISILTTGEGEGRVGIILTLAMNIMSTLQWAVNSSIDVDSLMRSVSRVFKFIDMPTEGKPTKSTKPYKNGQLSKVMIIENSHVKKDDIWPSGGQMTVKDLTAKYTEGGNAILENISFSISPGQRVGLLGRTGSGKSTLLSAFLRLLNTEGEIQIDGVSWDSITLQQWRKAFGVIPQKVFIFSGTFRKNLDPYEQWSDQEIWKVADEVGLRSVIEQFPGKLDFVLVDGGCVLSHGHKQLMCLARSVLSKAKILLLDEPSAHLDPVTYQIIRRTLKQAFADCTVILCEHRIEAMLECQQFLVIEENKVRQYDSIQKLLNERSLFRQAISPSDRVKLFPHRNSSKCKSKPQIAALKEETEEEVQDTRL

Usually EC50 stands for the concentration giving half of the maximal effect. In the case of `Cc1cccc(C)c1-c1cc2nc(n1)NS(=O)(=O)c1cccc(c1)C(=O)NCC(c1ccc([Si](C)(C)C)cc1)O2` (stereo not drawn) [Compound 15, 6-(2,6-Dimethylphenyl)-2,2-dioxo-10-(4-trimethylsilylphenyl)-9-oxa-2λ^6-thia-3,5,12,19-tetrazatricyclo[12.3.1.14,8]nonadeca-1(18),4(19),5,7,14,16-hexaen-13-one], the EC50 (Table 9) is below 1 µM.
With `COc1ccc2c(c1)c(C(=O)N1CCC3(CC1)CNC(=O)c1cccc(c1)S(=O)(=O)Nc1nc(cc(-c4c(C)cccc4C)n1)OC3)c(C)n2C1CC1` [Compound 451], for the setting “Enteroid Assay A”, the “Ent. A Max Activity” value is listed as “++ (++ is 30-60%)” and the EC50 was 3 to 30 µM.
In the case of `CC(C)C[C@@H]1COc2cc(-c3ccccc3OCc3ccccc3)nc(n2)NS(=O)(=O)c2cccc(c2)C(=O)N1` [Compound 393], for the setting “Table 9”, the “Ent. A Max Activity” value was “+++ (+++ is >60%)” and the concentration giving a half-maximal response (EC50) was below 1 µM.
For the compound `Cc1cccc(C)c1-c1cc2nc(n1)NS(=O)(=O)c1cccc(c1)C(=O)NCC1(CCN(C(=O)C3CC[C@@H](NC(=O)OC(C)(C)C)C3)CC1)CO2` (stereo partly drawn) [Compound 470], the “Ent. A Max Activity” value (Enteroid Assay A) is on record as “++ (++ is 30-60%)”.
Turning to `CC(C)C[C@@H]1COc2cc(C3CCCCO3)nc(n2)NS(=O)(=O)c2cccc(c2)C(=O)N1` (stereo partly drawn) [Compound 313], the EC50 (Table 8) is 3 to 30 µM.
Turning to `Cc1cccc(C)c1-c1cc2nc(n1)NS(=O)(=O)c1cccc(c1)C(=O)NCC(C1CCCCC1)O2` (stereo not drawn) [Compound 281], where the note is “Table 8”, the “Ent. A Max Activity” value is reported as “+++ (+++ is >60%)” and the concentration for a half-maximal effect (EC50) is below 1 µM.
`Cc1cccc(C)c1-c1cc2nc(n1)NS(=O)(=O)c1cccc(c1)C(=O)NCC(c1ccc(/C=C/C(C)(C)C)cc1)O2` (stereo not drawn) [Compound 23, 10-[4-[(E)-3,3-Dimethylbut-1-enyl]phenyl]-6-(2,6-dimethylphenyl)-2,2-dioxo-9-oxa-2λ^6-thia-3,5,12,19-tetrazatricyclo[12.3.1.14,8]nonadeca-1(18),4(19),5,7,14,16-hexaen-13-one]: under “Table 9”, the “Ent. A Max Activity” value is “+++ (+++ is >60%)” and the EC50 was below 1 µM.
For `CCC(C)(C)C(=O)N1CC[C@H]2NC(=O)c3cccc(c3)S(=O)(=O)Nc3nc(cc(-c4c(C)cccc4C)n3)OC2C1` (stereo in doubt) [Compound 371] the same measures were “++ (++ is 30-60%)” and 3 to 30 µM.
For the compound `Cc1cccc(C)c1-c1cc2nc(n1)NS(=O)(=O)c1cccc(c1)C(=O)N[C@@H](CC1CCC1)[C@@H](c1ccc(C(C)(C)C)cc1)O2` (stereo in doubt) [Compound 229], where the note is “Table 8”, the “Ent. A Max Activity” value is reported as “+++ (+++ is >60%)” and the EC50 was below 1 µM.
In the case of `Cc1cccc(C)c1-c1cc2nc(n1)NS(=O)(=O)c1cccc(c1)C(=O)NC[C@H](Cc1ccccc1)O2` [Compound 346], for the setting “Enteroid Assay A”, the “Ent. A Max Activity” value is listed as “++ (++ is 30-60%)” and the EC50 was below 1 µM.
Taken in the same sequence, the figures for `Cc1cccc(C)c1-c1cc2nc(n1)NS(=O)(=O)c1cccc(c1)C(=O)N[C@H]1CCCC[C@H]1O2` [Compound 364] were “++ (++ is 30-60%)” and 3 to 30 µM.
On to `CC(C)C[C@@H]1COc2cc(C3=CCC(C)CC3)nc(n2)NS(=O)(=O)c2cccc(c2)C(=O)N1` (stereo partly drawn) [Compound 324], for which, where the note is “Enteroid Assay A”, the “Ent. A Max Activity” value was “++ (++ is 30-60%)” and the concentration giving a half-maximal response (EC50) was 1 to 3 µM.
`Cc1cccc(C)c1-c1cc2nc(n1)NS(=O)(=O)c1cccc(c1)C(=O)N[C@H](CC(C)C)C(C1CC1)O2` (stereo partly drawn) [Compound 238]: under “Table 8”, the “Ent. A Max Activity” value is “+++ (+++ is >60%)” and the EC50 is 1 to 3 µM.
For the compound `Cc1cccc(C)c1-c1cc2nc(n1)NS(=O)(=O)c1cccc(c1)C(=O)NC[C@@H](c1ccc(C3CC3)cc1)O2` [Compound 260], for the setting “Table 9”, the “Ent. A Max Activity” value was “+++ (+++ is >60%)” and the EC50 is below 1 µM.
As for `Cc1cccc(C)c1-c1cc2nc(n1)NS(=O)(=O)c1cccc(c1)C(=O)N[C@@H]1CCN(C(=O)OC(C)(C)C)C[C@H]1O2` (single isomer, unassigned) [Compound 88, tert-Butyl 20-(2,6-dimethylphenyl)-10,16,16-trioxo-2-oxa-16λ^6-thia-5,9,17,19,22-pentaazatetracyclo[16.3.1.111,15.03,8]tricosa-1(21),11(23),12,14,18(22),19-hexaene-5-carboxylate], the “Ent. A Max Activity” value (Table 9) is “+ (+ is <30%)”.
As for `Cc1ccc(C2CNC(=O)c3cccc(c3)S(=O)(=O)Nc3nc(cc(-c4c(C)cccc4C)n3)O2)cc1` (stereo not drawn) [Compound 407], for the setting “Table 8”, the “Ent. A Max Activity” value is recorded as “+++ (+++ is >60%)” and the EC50 is below 1 µM.
Regarding `Cc1cccc(C)c1-c1cc2nc(n1)NS(=O)(=O)c1cccc(c1)C(=O)NCC(CC(C)C)O2` (stereo not drawn) [Compound 490], under “Enteroid Assay A”, the “Ent. A Max Activity” value is “+++ (+++ is >600%)” and the EC50 is 1 to 3 µM.
For the compound `Cc1cccc(C)c1-c1cc2nc(n1)NS(=O)(=O)c1cccc(c1)C(=O)NC1(CCCC1)CO2` [Compound 360], where the note is “Table 8”, the “Ent. A Max Activity” value is reported as “+++ (+++ is >60%)” and the EC50 is below 1 µM.
Regarding `CC(C)C[C@@H]1COc2cc(C3=CCCC3)nc(n2)NS(=O)(=O)c2cccc(c2)C(=O)N1` [Compound 321], where the note is “Enteroid Assay A”, the EC50 lay within 3 to 30 µM.
In the case of `CC(C)C[C@@H]1COc2cc(-n3ccc(OCCC4(C(F)(F)F)CC4)n3)nc(n2)NS(=O)(=O)c2cccc(c2)C(=O)N1` [Compound 306], the “Ent. A Max Activity” value (Table 8) is “+ (+ is <30%)”.
Still for that read-out and setting: with `Cc1cccc(C)c1-c1cc2nc(n1)NS(=O)(=O)c1cccc(c1)C(=O)NC(C(F)(F)F)CO2` (stereo not drawn) [Compound 171] the entry was “+ (+ is <30%)”.
On to `CCC1CC=C(c2cc3nc(n2)NS(=O)(=O)c2cccc(c2)C(=O)N[C@H](CC(C)C)CO3)CC1` (stereo partly drawn) [Compound 322], for which, under “Enteroid Assay A”, the “Ent. A Max Activity” value is reported as “++ (++ is 30-60%)” and the half-maximal effective concentration (EC50) was 1 to 3 µM.
Taken in the same sequence, the figures for `Cc1cccc(C)c1-c1cc2nc(n1)NS(=O)(=O)c1cccc(c1)C(=O)NCC1(CCN(Cc3cccc(OC(F)(F)F)c3F)CC1)CO2` [Compound 431] were “++ (++ is 30-60%)” and below 1 µM.
For `Cc1cccc(C)c1-c1cc2nc(n1)NS(=O)(=O)c1cccc(c1)C(=O)NC[C@@H](CC(C)C)O2` [Compound 254], the “Ent. A Max Activity” value (Table 8) was “+ (+ is <30%)”.
Consider `Cc1cccc(C)c1-c1cc2nc(n1)NS(=O)(=O)c1cccc(c1)C(=O)N[C@H](CC1CCC(F)(F)CC1)CO2` [Compound 187], for which, for the setting “Table 8”, the “Ent. A Max Activity” value is on record as “+++ (+++ is >60%)” and the concentration giving a half-maximal response (EC50) was below 1 µM.
Take `Cc1cccc(C)c1-c1cc2nc(n1)NS(=O)(=O)c1cccc(c1)C(=O)NCC1(CCN(Cc3sccc3Oc3ccccc3)CC1)CO2` [Compound 83, 6-(2,6-Dimethylphenyl)-2,2-dioxo-1′-[(3-phenoxy-2-thienyl)methyl]spiro[9-oxa-2λ^6-thia-3,5,13,20-tetrazatricyclo[13.3.1.14,8]icosa-1(19),4(20),5,7,15,17-hexaene-11,4′-piperidine]-14-one]: for the setting “Enteroid Assay A”, the “Ent. A Max Activity” value is listed as “+++ (+++ is >600%)” and the concentration for a half-maximal effect (EC50) was below 1 µM.
For the compound `Cc1cccc(C)c1-c1cc2nc(n1)NS(=O)(=O)c1cccc(c1)C(=O)N[C@@H]1CCN(Cc3ccc(C(C)(C)C)cc3)C[C@@H]1O2` (single isomer, unassigned) [Compound 91, 5-[(4-tert-butylphenyl)methyl]-20-(2,6-dimethylphenyl)-2-oxa-16λ^6-thia-5,9,17,19,22-pentaazatetracyclo[16.3.1.111,15.03,8]tricosa-1(21),11(23),12,14,18(22),19-hexaene-10,16,16-trione], under “Table 9”, the “Ent. A Max Activity” value is “+++ (+++ is >60%)” and the EC50 is below 1 µM.
For `Cc1cccc(C)c1-c1cc2nc(n1)NS(=O)(=O)c1cccc(c1)C(=O)NCC(c1ccc(CC(C)(C)C)cc1)O2` (stereo not drawn) [Compound 264], where the note is “Table 9”, the “Ent. A Max Activity” value was “+ (+ is <30%)” and the EC50 was below 1 µM.
On to `Cc1cccc(C)c1-c1cc2nc(n1)NS(=O)(=O)c1cccc(c1)C(=O)N[C@@H]1CCN(C(=O)OC(C)(C)C)C[C@H]1O2` (single isomer, unassigned) [Compound 87, tert-butyl 20-(2,6-dimethylphenyl)-10,16,16-trioxo-2-oxa-16λ^6-thia-5,9,17,19,22-pentaazatetracyclo[16.3.1.111,15.03,8]tricosa-1(21),11(23),12,14,18(22),19-hexaene-5-carboxylate], for which, for the setting “Table 9”, the “Ent. A Max Activity” value is “+++ (+++ is >60%)” and the EC50 lay in the range of 1 to 3 µM.
Turning to `CC(C)C[C@@H]1COc2cc(-c3ccccc3-c3ccccc3)nc(n2)NS(=O)(=O)c2cccc(c2)C(=O)N1` [Compound 101, (11R)-11-Isobutyl-2,2-dioxo-6-(2-phenylphenyl)-9-oxa-2λ^6-thia-3,5,12,19-tetrazatricyclo[12.3.1.14,8]nonadeca-1(18),4,6,8(19),14,16-hexaen-13-one], under “Table 9”, the “Ent. A Max Activity” value is given as “+++ (+++ is >60%)” and the EC50 is below 1 µM.
For `CCC(C)(C)C(=O)N1CC[C@H]2Oc3cc(-c4c(C)cccc4C)nc(n3)NS(=O)(=O)c3cccc(c3)C(=O)N[C@@H]2C1` [Compound 370] the same measures were “+++ (+++ is >60%)” and 1 to 3 µM.
In the case of `Cc1cccc(C)c1-c1cc2nc(n1)NS(=O)(=O)c1cccc(c1)CNC1C[C@@H](CN(C(=O)OCc3ccccc3)C1)O2` (stereo in doubt) [Compound 192], for the setting “Enteroid Assay A”, the “Ent. A Max Activity” value was “++ (++ is 30-60%)” and the EC50 was in the range of 1 to 3 µM.
Turning to `Cc1cccc(C)c1-c1cc2nc(n1)NS(=O)(=O)c1cccc(c1)C(=O)NCC(c1ccccc1)CO2` (stereo not drawn) [Compound 201], the concentration giving a half-maximal response (EC50) (Enteroid Assay A) was below 1 µM.
Regarding `CC[C@H]1NC(=O)c2cccc(c2)S(=O)(=O)Nc2nc(cc(-c3c(C)cccc3C)n2)O[C@H]1c1ccc(C(C)(C)C)cc1` [Compound 132], where the note is “Table 9”, the “Ent. A Max Activity” value is on record as “+++ (+++ is >60%)” and the concentration for a half-maximal effect (EC50) is below 1 µM.
With `Cc1cccc(C)c1-c1cc2nc(n1)NS(=O)(=O)c1cccc(c1)C(=O)NCC(c1ccc(Br)cc1)O2` (single isomer, unassigned) [Compound 19, 10-(4-bromophenyl)-6-(2,6-dimethylphenyl)-2,2-dioxo-9-oxa-2λ^6-thia-3,5,12,19-tetrazatricyclo[12.3.1.14,8]nonadeca-1(18),4(19),5,7,14,16-hexaen-13-one], under “Table 8”, the “Ent. A Max Activity” value is “+ (+ is <30%)”.
